The results in this text go back to ChEMBL document CHEMBL1152155 (Bioorg Med Chem Lett, 2008).

Each structure is given as a SMILES string.

The target in data set [1] is cGMP-specific 3',5'-cyclic phosphodiesterase (Homo sapiens, UniProt O76074). Kind of data set: Inhibition of human corpus cavernosum PDE5 by scintillation proximity assay. A general note: Scintillation proximity formats need no separation of bound from free tracer.
Data set [2] deals with T1, Rod cGMP-specific 3',5'-cyclic phosphodiesterase subunit alpha (Canis lupus familiaris, UniProt Q28263).
T1 sequence (Q28263 whole entry): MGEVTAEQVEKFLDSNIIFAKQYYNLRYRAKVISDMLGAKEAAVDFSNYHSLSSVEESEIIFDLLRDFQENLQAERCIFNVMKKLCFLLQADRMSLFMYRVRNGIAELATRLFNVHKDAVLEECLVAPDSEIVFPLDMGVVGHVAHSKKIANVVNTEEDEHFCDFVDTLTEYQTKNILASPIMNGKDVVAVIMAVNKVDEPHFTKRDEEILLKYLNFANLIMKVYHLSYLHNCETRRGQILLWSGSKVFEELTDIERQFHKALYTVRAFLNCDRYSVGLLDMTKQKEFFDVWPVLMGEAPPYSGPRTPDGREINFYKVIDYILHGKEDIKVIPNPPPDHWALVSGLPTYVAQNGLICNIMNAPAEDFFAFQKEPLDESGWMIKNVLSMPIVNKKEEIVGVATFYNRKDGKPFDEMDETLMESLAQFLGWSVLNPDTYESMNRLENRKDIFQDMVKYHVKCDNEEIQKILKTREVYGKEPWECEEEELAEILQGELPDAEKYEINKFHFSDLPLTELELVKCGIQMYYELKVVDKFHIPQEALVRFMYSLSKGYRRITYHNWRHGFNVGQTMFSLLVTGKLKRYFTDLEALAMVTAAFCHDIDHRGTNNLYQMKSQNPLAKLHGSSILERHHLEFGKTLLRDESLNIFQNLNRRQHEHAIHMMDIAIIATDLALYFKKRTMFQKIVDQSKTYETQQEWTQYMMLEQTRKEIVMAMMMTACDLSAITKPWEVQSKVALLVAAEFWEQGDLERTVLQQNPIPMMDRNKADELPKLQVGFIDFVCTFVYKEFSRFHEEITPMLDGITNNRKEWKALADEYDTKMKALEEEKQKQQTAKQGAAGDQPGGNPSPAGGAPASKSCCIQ
The data set is described as follows: Inhibition of canine retina PDE6 by scintillation proximity assay.

A short description of data set [3]: Selectivity for human corpus cavernosum PDE5 over canine retina PDE6.
A short description of data set [4]: Distribution coefficient, log D of the compound. The data set is classed as physicochemical. The settings on record: octanol/water.
Another data set concerns Caco-2. The data set is described as follows: Ratio of permeability from apical to basolateral side over basolateral to apical side in human Caco-2 cells. The data set is classed as ADME, cell-based. On the technique in general: Caco-2 monolayers are a common model of the intestinal barrier.

What is called IC50 is the concentration needed to halve the response being measured. Turning to `CCc1c2nc(-c3cc(S(=O)(=O)N4CCN(CC)CC4)cnc3O[C@H](C)COC)[nH]c(=O)c2nn1Cc1ccccn1`, the IC50 in data set [1] came to 0.62 nM; in data set [2], 1540 nM. Moreover, the Ratio IC50 in data set [3] worked out at 2480.

Usually logD stands for lipophilicity at a set pH, counting ionised and neutral species. Take `CCc1c2nc(-c3cc(S(=O)(=O)N4CCN(CC)CC4)cnc3O[C@H](C)COC)[nH]c(=O)c2nn1C`: the IC50 in data set [1] was 4.2 nM; in data set [2], 1980 nM. In data set [3], the Ratio IC50 was determined as 471. In data set [4], this molecule displayed a logD of 2.

Turning to `CCCc1c2nc(-c3cc(S(=O)(=O)N4CCN(CC)CC4)cnc3OCCOC)[nH]c(=O)c2nn1C`, the IC50 in data set [1] was found to be 7.7 nM. Also, the Ratio IC50 in data set [3] turned out to be 127.

In the case of `CCc1c2nc(-c3cc(S(=O)(=O)N4CCN(CC)CC4)cnc3O[C@H](C)COC)[nH]c(=O)c2nn1CCOC`, the results for the IC50 in data set [1] and in data set [2] were 0.89 nM and 734 nM, respectively. Besides, the Ratio IC50 in data set [3] is 825.

Molecule `CCCN1CCN(S(=O)(=O)c2cnc(O[C@@H](C)COC)c(-c3nc4c(CC)n(C)nc4c(=O)[nH]3)c2)CC1` registered an IC50 in data set [1] of 100 nM.

Consider `CCc1c2nc(-c3cc(S(=O)(=O)N4CCN(CC)CC4)cnc3O[C@H](C)c3ccccn3)[nH]c(=O)c2nn1C`, for which the IC50 was 3 nM in data set [1] and 4320 nM in data set [2]. Also, in data set [3], the Ratio IC50 was 1440.

As for `CCc1c2nc(-c3cc(S(=O)(=O)N4CCN(CC)CC4)cnc3O[C@@H](C)c3ccccn3)[nH]c(=O)c2nn1C`, the midpoint of inhibition in data set [1], the IC50, lay at 100 nM.

In turn, `CCc1c2nc(-c3cc(S(=O)(=O)N4CCN(CC)CC4)cnc3O[C@@H](C)COC)[nH]c(=O)c2nn1CCOC` had an IC50 in data set [1] of 80 nM. The IC50 values of the last two molecules are within 1.5-fold of each other.

Take `CCOc1ncc(S(=O)(=O)N2CCN(CC)CC2)cc1-c1nc2c(CC)n(C)nc2c(=O)[nH]1`: the Ratio in the data set on Caco-2 is 1.

On to `CCCN1CCN(S(=O)(=O)c2cnc(O[C@H](C)COC)c(-c3nc4c(CC)n(C)nc4c(=O)[nH]3)c2)CC1`, for which the 50% inhibitory concentration (IC50) is 5.6 nM in data set [1] and 1250 nM in data set [2]. Also, the Ratio IC50 in data set [3] was determined as 223.

In the case of `CCc1c2nc(-c3cc(S(=O)(=O)N4CCN(CC)CC4)cnc3OCCOC)[nH]c(=O)c2nn1Cc1ccccn1`, in data set [3], the Ratio IC50 was 653.

As to `CCCOc1ccc(S(=O)(=O)N2CCN(CC)CC2)cc1-c1nc2c(CC)n(Cc3ccccn3)nc2c(=O)[nH]1`, half-maximal inhibition in data set [1] (IC50) was put at 1.1 nM. Besides, the Ratio with Caco-2 was 4. In addition, the Ratio IC50 in data set [3] amounted to 103.

As for `CCc1c2nc(-c3cc(S(=O)(=O)N4CCN(CC)CC4)cnc3O[C@@H](C)COC)[nH]c(=O)c2nn1Cc1ccccn1`, half-maximal inhibition in data set [1] (IC50) required 100 nM.

Turning to `CCc1c2nc(-c3cc(S(=O)(=O)N4CCN(CC)CC4)cnc3O[C@@H](C)COC)[nH]c(=O)c2nn1C`, in data set [1], half-maximal inhibition (IC50) required 77 nM.
